“And” between values parts separate entries of the source, which are not always exact repeats. Equal entries are not always repeated. “Also recorded” adds a separate entry of the source.
How the values were obtained:
apo C-III = experiment: semiquantitative RT-PCR, liver apo C-III mRNA; assay type: in vivo, C57BL/6J mice; conditions: HF diet-fed mice, normalized to GAPDH, vs HF group
From the text: (§1) For part 2, C57BL/6J mice (4 weeks old) were obtained from the National Laboratory Animal Breeding and Research Center. The mice were divided randomly into two groups after 7 days acclimation. The control (CON) group (n=9) was fed a low-fat diet (diet 12450B, Research Diets, Inc., New Brunswick, N.J., USA), whereas the experimental group was fed a 45% high-fat diet (diet 12451, Research Diets, Inc.) for 12 weeks. The compositions of the experimental diets are given in previous studies. […]
(§2) Total RNA from the liver tissue was isolated with a Trizol reagent (Molecular Research Center, Inc., Cincinnati, Ohio, USA) according to the manufacturer's directions. The integrity of the extracted total RNA was examined by 2% agarose gel electrophoresis, and the RNA concentration was determined by ultraviolet (UV) light absorbency at 260 and 280 nm (spectrophotometer U-2800A, Hitachi). […] The relative density of the band was evaluated using AlphaDigiDoc 1201 software (Alpha Innotech Co., San Leandro, Calif., USA). All of the measured PCR products were normalized to the amount of cDNA of GAPDH in each sample. […]

DGAT2 = experiment: semiquantitative RT-PCR, liver DGAT2 mRNA; assay type: in vivo, C57BL/6J mice; conditions: HF diet-fed mice, normalized to GAPDH, vs HF group
From the text: as §1, §2

GLUT4 = experiment: western blot, GLUT4 protein in skeletal muscle; assay type: in vivo, C57BL/6J mice; conditions: HF diet-fed mice
From the text: (§3) FIG. 4A is a western blot analysis showing the protein contents of GLUT4 in skeletal muscle, and phospho-AMPK (Thr172) and total-AMPK (Thr172) in both liver tissue and skeletal muscle, and phospho-Akt (Ser473) and total-Akt (Ser473) in skeletal muscle of the mice receiving tormentic acid (PTA) by oral gavage for 4 weeks; and
(§4) FIG. 4B is a diagram showing the protein contents of GLUT4 in skeletal muscle, the expression levels of phospho-AMPK (Thr172) to total AMPK in both liver tissue and skeletal muscle, and quantified results from FIG. 4A for the phosphorylation status of Akt (p-Akt normalized to total Akt (pAkt/Akt)) in skeletal muscle of the mice receiving tormentic acid (PTA) by oral gavage for 4 weeks.
as §1

PPARα = experiment: semiquantitative RT-PCR, liver PPARα mRNA; assay type: in vivo, C57BL/6J mice; conditions: HF diet-fed mice, normalized to GAPDH
From the text: as §1, §2

[1] = hepatic lipids in high-fat diet-fed mice; assay type: in vivo; conditions: HF diet-fed C57BL/6J mice, mean ± SE, n=9
From the text: (§5) For part 2, C57BL/6J mice (4 weeks old) were obtained from the National Laboratory Animal Breeding and Research Center. The mice were divided randomly into two groups after 7 days acclimation. The control (CON) group (n=9) was fed a low-fat diet (diet 12450B, Research Diets, Inc., New Brunswick, N.J., USA), whereas the experimental group was fed a 45% high-fat diet (diet 12451, Research Diets, Inc.) for 12 weeks. The compositions of the experimental diets are given in previous studies. After 8 weeks, the high-fat treated mice were randomly subdivided into four groups (n=9) including PTA1 (0.06 g/kg/day), PTA2 (0.12 g/kg/day) or rosiglitazone (Rosi; 1% methylcellulose, 10 mg/kg body weight) (GlaxoSmithKline) or vehicle and treated by oral gavage one time per day from the 9th to 12th weeks, while the mice were still on the high-fat diet, whereas the CON and high-fat control (HF) mice were treated with vehicle only. At the end, food was withheld from the animals (from 10 p.m. to 10 a.m.). The next day, the mice were sacrificed for blood and tissue collection and analysis. Livers, skeletal muscles, and white adipose tissues (WATs) (including epididymal, mesenteric, and retroperitoneal WAT) were weighed and excised, followed by immediate freezing, and kept at −80° C. for target gene analysis. Heparin (30 units/mL) (Sigma) was added to blood samples. Plasma samples were collected within 30 min by centrifugation at 1600 g for 15 min at 4° C. Plasma was obtained for insulin and leptin assay.
Hepatic lipids were extracted using a previously described protocol. For the hepatic lipid extraction, 0.375 g liver samples were homogenized with 1 mL of distilled water for 5 min. Finally, the dried pellet was resuspended in 0.5 mL of ethanol and analyzed using a triglycerides kit as used for serum lipids.

[2] = oral glucose tolerance test (OGTT) in normal mice; assay type: in vivo; conditions: 12 h fasted ICR mice; 0.2, 0.4 and 0.8 g/kg orally 30 min before oral glucose load 1 g/kg; from 30 to 120 min
Protocol: For part 1, an oral glucose tolerance test (OGTT) was performed on 12 h fasted ICR mice (n=5) that were allowed access to 0.2, 0.4, and 0.8 g/kg PTA or an equivalent amount of vehicle (water), which were given orally 30 min before an oral glucose load (1 g/kg body wt). The control group was given glucose, whereas the normal group was not. Blood samples were collected from the retro-orbital sinus of fasted mice at the time of the glucose administration (0) and every 30 min until 120 min after glucose administration.

AMPK = experiment: western blot, phospho-AMPK (Thr172)/total-AMPK in liver tissue and skeletal muscle; assay type: in vivo, C57BL/6J mice; conditions: HF diet-fed mice
From the text: as §3, §4, §5

SREBP1c = experiment: semiquantitative RT-PCR, liver SREBP1c mRNA; assay type: in vivo, C57BL/6J mice; conditions: HF diet-fed mice, normalized to GAPDH, vs HF group
From the text: as §1, §2

Akt = experiment: western blot, phospho-Akt (Ser473)/total-Akt in skeletal muscle; assay type: in vivo, C57BL/6J mice; conditions: HF diet-fed mice
From the text: as §3, §4, §1

PEPCK = experiment: semiquantitative RT-PCR, liver PEPCK mRNA; assay type: in vivo, C57BL/6J mice; conditions: HF diet-fed mice, normalized to GAPDH, vs HF group
From the text: as §1, §2

[3] = PTA1 0.06 g/kg/day oral gavage 4 weeks
[4] = PTA2 0.12 g/kg/day oral gavage 4 weeks

SMILES: C[C@@H]1CC[C@]2(C(=O)O)CC[C@]3(C)C(=CC[C@@H]4[C@@]5(C)C[C@@H](O)[C@H](O)C(C)(C)[C@@H]5CC[C@]43C)[C@@H]2[C@]1(C)O [PTA, tormentic acid]
- mRNA level of apo C-III in liver (apo C-III; PTA1 0.06 g/kg/day 4 weeks): significantly decrease
- mRNA level of apo C-III in liver (apo C-III; PTA2 0.12 g/kg/day 4 weeks): significantly decrease
- mRNA level of DGAT2 in liver (DGAT2; PTA1 0.06 g/kg/day 4 weeks): significantly decrease
- mRNA level of DGAT2 in liver (DGAT2; PTA2 0.12 g/kg/day 4 weeks): significantly decrease
- membrane protein levels of GLUT4 (GLUT4; PTA1 0.06 g/kg/day 4 weeks): significantly increased
- membrane protein levels of GLUT4 (GLUT4; PTA2 0.12 g/kg/day 4 weeks): significantly increased; also recorded: marked increases
- mRNA levels of PPARα in liver (PPARα; PTA1 0.06 g/kg/day 4 weeks): increased
- mRNA levels of PPARα in liver (PPARα; PTA2 0.12 g/kg/day 4 weeks): increased
- Liver lipids: Total lipid [1, 3]: 80.1 ± 4.6 mg/g
- Liver lipids: Triacylglycerol [1, 3]: 51.7 ± 5.1 µmol/g
- Liver lipids: Total lipid [1, 4]: 68.2 ± 5.9 mg/g
- Liver lipids: Triacylglycerol [1, 4]: 35.2 µmol/g and 35.2 ± 4.9 µmol/g
- levels of blood glucose (OGTT) [2]: decreased
- expression levels of phospho-AMPK/total-AMPK (AMPK; liver tissue, PTA1 0.06 g/kg/day 4 weeks): significantly increase
- expression levels of phospho-AMPK/total-AMPK (AMPK; liver tissue, PTA2 0.12 g/kg/day 4 weeks): significantly increase
- expression levels of phospho-AMPK/total-AMPK (AMPK; skeletal muscle, PTA1 0.06 g/kg/day 4 weeks): significantly increase
- expression levels of phospho-AMPK/total-AMPK (AMPK; skeletal muscle, PTA2 0.12 g/kg/day 4 weeks): significantly increase
- mRNA level of SREBP1c in liver (SREBP1c; PTA1 0.06 g/kg/day 4 weeks): significantly decrease
- mRNA level of SREBP1c in liver (SREBP1c; PTA2 0.12 g/kg/day 4 weeks): significantly decrease
- expression levels of phospho-Akt/total-Akt (Akt; PTA1 0.06 g/kg/day 4 weeks): significantly increased
- expression levels of phospho-Akt/total-Akt (Akt; PTA2 0.12 g/kg/day 4 weeks): significantly increased
- mRNA level of PEPCK in liver (PEPCK; PTA1 0.06 g/kg/day 4 weeks): significantly decrease
- mRNA level of PEPCK in liver (PEPCK; PTA2 0.12 g/kg/day 4 weeks): significantly decrease

Source: US20170105953A1, “METHOD FOR SUPPRESSING DIABETES AND/OR HEPATIC LIPIDS USING TORMENTIC ACID” (priority 2015, published 2017)
